Laboratory results reported in patent US20170210723A1, “MOLECULES HAVING PESTICIDAL UTILITY, AND INTERMEDIATES, COMPOSITIONS, AND PROCESSES, RELATED THERETO” (priority 2016, published 2017).

Legend:
Assay type in all cases: in vivo
[1] = test system: Beet Armyworm (Spodoptera exigua); assay: Bioassays on BAW, 128-well diet tray assay; conditions: Spodoptera exigua; for mortality at 50 µg/cm2: 168 h, 50 μg/cm^2 on artificial diet, second instar larvae, five to seven days, read-out: BAW % Control (or Mortality) rating
[2] = test system: Cabbage Looper (Trichoplusia ni); assay: Bioassays on CL, 128-well diet tray assay; conditions: Trichoplusia ni; for mortality at 50 µg/cm2: 168 h, 50 μg/cm^2 on artificial diet, second instar larvae, five to seven days, read-out: CL % Control (or Mortality) rating
Procedure, shortened: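 Second-instar larvae (1–5 per well) were fed diet surface-treated with 50 μg/cm^2 compound, eight wells each. After five to seven days at 25° C. under a 14:10 photoperiod, mortality was scored per well and the eight wells averaged.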

[3] = test system: Green Peach Aphid (Myzus persicae); assay: Bioassays on Green Peach Aphid, foliar spray on cabbage seedlings; conditions: 72 h, 200 ppm spray on cabbage seedlings, three days, Abbott corrected % control, read-out: GPA % Control (or Mortality) rating
Protocol: Cabbage seedlings grown in 3-inch pots, with 2-3 small (3-5 cm) true leaves, were used as test substrate. The seedlings were infested with 20-50 GPA (wingless adult and nymph stages) one day prior to chemical application. Four pots with individual seedlings were used for each treatment. Test molecules (2 mg) were dissolved in 2 mL of acetone/methanol (1:1) solvent, forming stock solutions of 1000 ppm test molecule. The stock solutions were diluted 5× with 0.025% Tween 20 in water to obtain the solution at 200 ppm test molecule. A hand-held aspirator-type sprayer was used for spraying a solution to both sides of […] leaves until runoff. Reference plants (solvent check) were sprayed with the diluent only containing 20% by volume of acetone/methanol (1:1) solvent. Treated plants were held in a holding room for three days at approximately 25° C. and ambient relative humidity (RH) prior to grading. Evaluation was conducted by counting the number of live aphids per plant under a microscope. Percent Control was measured by using Abbott's correction formula (W. S. Abbott, “A Method of Computing the Effectiveness of an Insecticide” J. Econ. Entomol. 18 (1925), pp. 265-267) as follows.
Corrected % Control=100*(X−Y)/X • where • X=No. of live aphids on solvent check plants and • Y=No. of live aphids on treated plants

[4] = test system: Yellow Fever Mosquito (Aedes aegypti); assay: Bioassays on Yellow Fever Mosquito larvae, 96-well plate; conditions: from 4000 ppm DMSO master plate, about 1 day-old larvae, 3 days
Procedure, shortened: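 Aedes aegypti larvae about 1 day old, in water with liver powder, exposed in 96-well plates to compounds from a 4000 ppm DMSO master solution diluted in 90:10 water:acetone. Plates covered and held at room temperature for 3 days, then each well scored for mortality; 6 replicate plates.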

| SMILES | mortality at 50 µg/cm2 [1] | mortality at 50 µg/cm2 [2] | mortality at 200 ppm [3] | YFM % Control (or Mortality) rating [4] | mortality at 0.05 µg/cm2 ([1]; 0.05 μg/cm^2, read-out: BAW Percent control (or mortality)) | mortality at 0.5 µg/cm2 ([1]; 0.5 μg/cm^2, read-out: BAW Percent control (or mortality)) | mortality at 5 µg/cm2 ([1]; 5 μg/cm^2, read-out: BAW Percent control (or mortality)) | mortality at 0.05 µg/cm2 ([2]; 0.05 μg/cm^2, read-out: CL Percent control (or mortality)) | mortality at 0.5 µg/cm2 ([2]; 0.5 μg/cm^2, read-out: CL Percent control (or mortality)) | mortality at 5 µg/cm2 ([2]; 5 μg/cm^2, read-out: CL Percent control (or mortality)) |
| --- | --- | --- | --- | --- | --- | --- | --- | --- | --- | --- |
| C[C@H](CSCC(F)(F)F)NC(=O)c1ccc(/C=C/C(c2cc(Cl)c(Cl)c(Cl)c2)C(F)(F)F)cc1C(F)(F)F (stereo partly drawn) [F22, 4-((E)-4,4,4-trifluoro-3-(3,4,5-trichlorophenyl)but-1-en-1-yl)-N—((R)-1-((2,2,2-trifluoroethyl)thio)propan-2-yl)-2-(trifluoromethyl)benzamide] | 50 to 100% | 50 to 100% | 80 to 100% | A (80-100) | – | – | – | – | – | – |
| CS(=O)(=O)CC[C@@H](NC(=O)c1ccc(/C=C/C(c2cc(Cl)c(Cl)c(Cl)c2)C(F)(F)F)cc1Br)C(=O)NCC(F)(F)F (stereo partly drawn) [F25, 2-bromo-N—((R)-4-(methylsulfonyl)-1-oxo-1-((2,2,2-trifluoroethyl)amino)butan-2-yl)-4-((E)-4,4,4-trifluoro-3-(3,4,5-trichlorophenyl)but-1-en-1-yl)benzamide] | 50 to 100% | 50 to 100% | 0 to 80% | A (80-100) | – | – | – | – | – | – |
| CS(=O)(=O)CC[C@@H](NC(=O)c1ccc(/C=C/C(c2cc(Cl)c(Cl)c(Cl)c2)C(F)(F)F)cc1C(F)(F)F)C(=O)NCC(F)(F)F (stereo partly drawn) [F26, N—((R)-4-(Methylsulfonyl)-1-oxo-1-((2,2,2-trifluoroethyl)amino)butan-2-yl)-4-((E)-4,4,4-trifluoro-3-(3,4,5-trichlorophenyl)but-1-en-1-yl)-2-(trifluoromethyl)benzamide] | 50 to 100% | 50 to 100% | 0 to 80% | B (More than 0-Less than 80) | – | – | – | – | – | – |
| C[C@H](CSCC(F)(F)F)NC(=O)c1ccc(/C=C/C(c2cc(Cl)c(F)c(Cl)c2)C(F)(F)F)cc1C(F)(F)F (stereo partly drawn) [F35, 4-((E)-3-(3,5-Dichloro-4-fluorophenyl)-4,4,4-trifluorobut-1-en-1-yl)-N—((R)-1-((2,2,2-trifluoroethyl)thio)propan-2-yl)-2-(trifluoromethyl)benzamide] | 50 to 100% | 50 to 100% | 0 to 80% | A (80-100) | – | – | – | – | – | – |
| C[C@H](CSCC(F)(F)F)NC(=O)c1ccc(/C=C/C(c2cc(Cl)c(Cl)c(Cl)c2)C(F)(F)F)cc1Br (stereo partly drawn) [F38, 2-Bromo-4-((E)-4,4,4-trifluoro-3-(3,4,5-trichlorophenyl)but-1-en-1-yl)-N-((R)-1-((2,2,2-trifluoroethyl)thio)propan-2-yl)benzamide] | 50 to 100% | 50 to 100% | 0 to 80% | A (80-100) | – | – | – | – | – | – |
| C[C@H](C[S+]([O-])CC(F)(F)F)NC(=O)c1ccc(/C=C/C(c2cc(Cl)c(F)c(Cl)c2)C(F)(F)F)cc1Br (stereo partly drawn) [F49, 2-Bromo-4-((E)-3-(3,5-dichloro-4-fluorophenyl)-4,4,4-trifluorobut-1-en-1-yl)-N-((2R)-1-((2,2,2-trifluoroethyl)sulfinyl)propan-2-yl)benzamide] | 50 to 100% | 50 to 100% | 0% | A (80-100) | – | – | – | – | – | – |
| C[C@H](CSCC(F)(F)F)NC(=O)c1ccc(/C=C/C(c2cc(Br)cc(Br)c2)C(F)(F)F)cc1C(F)(F)F (stereo partly drawn) [F56, 4-((E)-3-(3,5-Dibromophenyl)-4,4,4-trifluorobut-1-en-1-yl)-N—((R)-1-((2,2,2-trifluoroethyl)thio)propan-2-yl)-2-(trifluoromethyl)benzamide] | 50 to 100% | 50 to 100% | 0% | A (80-100) | – | – | – | – | – | – |
| C[C@H](CS(=O)(=O)CC(F)(F)F)NC(=O)c1ccc(/C=C/C(c2cc(Cl)c(Cl)c(Cl)c2)C(F)(F)F)cc1Cl (stereo partly drawn) [F58, 2-Chloro-4-((E)-4,4,4-trifluoro-3-(3,4,5-trichlorophenyl)but-1-en-1-yl)-N—((R)-1-((2,2,2-trifluoroethyl)sulfonyl)propan-2-yl)benzamide] | 50 to 100% | 50 to 100% | 0% | A (80-100) | 100% | 100% | 100% | 100% | 100% | 100% |
| C[C@H](CS(=O)(=O)CC(F)(F)F)NC(=O)c1ccc(/C=C/C(c2cc(Br)c(Cl)c(Br)c2)C(F)(F)F)cc1C(F)(F)F (stereo partly drawn) [F59, 4-((E)-3-(3,5-Dibromo-4-chlorophenyl)-4,4,4-trifluorobut-1-en-1-yl)-N—((R)-1-((2,2,2-trifluoroethyl)sulfonyl)propan-2-yl)-2-(trifluoromethyl)benzamide] | 50 to 100% | 50 to 100% | 0% | – | – | – | – | – | – | – |
| CCS(=O)(=O)C[C@@H](C)NC(=O)c1ccc(/C=C/C(c2cc(Cl)c(Cl)c(Cl)c2)C(F)(F)F)cc1C(F)(F)F (stereo partly drawn) [F68, N—((R)-1-(Ethylsulfonyl)propan-2-yl)-4-((E)-4,4,4-trifluoro-3-(3,4,5-trichlorophenyl)but-1-en-1-yl)-2-(trifluoromethyl)benzamide] | 50 to 100% | 50 to 100% | 0 to 80% | A (80-100) | – | – | – | – | – | – |
| CCC[S+]([O-])C[C@@H](C)NC(=O)c1ccc(/C=C/C(c2cc(Cl)c(Cl)c(Cl)c2)C(F)(F)F)cc1C(F)(F)F (stereo partly drawn) [F111, N-((2R)-1-(Propylsulfinyl)propan-2-yl)-4-((E)-4,4,4-trifluoro-3-(3,4,5-trichlorophenyl)but-1-en-1-yl)-2-(trifluoromethyl)benzamide] | 50 to 100% | 50 to 100% | 0 to 80% | A (80-100) | – | – | – | – | – | – |
| C[C@H](CSCCF)NC(=O)c1ccc(/C=C/C(c2cc(Cl)c(Cl)c(Cl)c2)C(C)(F)F)cc1C(F)(F)F (stereo partly drawn) [F119, 4-((E)-4,4-Difluoro-3-(3,4,5-trichlorophenyl)pent-1-en-1-yl)-N—((R)-1-((2-fluoroethyl)thio)propan-2-yl)-2-(trifluoromethyl)benzamide] | 50 to 100% | 50 to 100% | 0 to 80% | A (80-100) | – | – | – | – | – | – |
